Data set [1] relates to monocotyledonous and dicotyledonous weed and crop plants. Kind of data set: Example V 2: Herbicidal Post-Emergence Action. The format is in vivo. The following applies: greenhouse, 320 g of a.i./ha, about 3 weeks. On the procedure:
(§1) Seeds of monocotyledonous and dicotyledonous weed and crop plants are placed into sandy loam in wood fibre pots, covered with soil and cultivated in a greenhouse under good growth conditions. 2-3 weeks after sowing, the test plants are treated at the one-leaf stage. The test compounds, formulated as wettable powders (WP), are then, in various dosages with a water application rate of 600 l/ha (converted), with 0.2% of wetting agent added, sprayed onto the green parts of the plants. After the test plants have been kept in the greenhouse under optimum growth conditions for about 3 weeks, the effect of the preparations is rated visually in comparison to untreated controls (herbicidal effect in percent (%): 100% effect=the plants have died, 0% effect=like control plants).

In data set [2] the test system is Lolium multiflorum. Kind of data set: Example V 2: Herbicidal Post-Emergence Action. Conditions: greenhouse, 320 g of a.i./ha, about 3 weeks. Format: in vivo. How it is done: as §1
In data set [3] the test system is Echinocloa crus-galli. As to the kind of experiment: Example V 2: Herbicidal Post-Emergence Action. Format: in vivo. Conditions: greenhouse, 320 g of a.i./ha, about 3 weeks. How it is done: as §1
Data set [4] relates to Setaria viridis. As to the kind of experiment: Example V 2: Herbicidal Post-Emergence Action. Format: in vivo. Conditions: greenhouse, 320 g of a.i./ha, about 3 weeks. On the procedure: as §1
The test system of data set [5] is Phaedon cochleariae. As to the kind of experiment: Example N: Phaedon Test (spray treatment). The format is in vivo. Conditions: application rate 500 g/ha. How it is done:
[table] To produce a suitable preparation of active compound, 1 part by weight of active compound is mixed with the stated amounts of solvents and emulsifier, and the concentrate is diluted with emulsifier-containing water to the desired concentration. Discs of Chinese cabbage (Brassica pekinensis) are sprayed with a preparation of active compound of the desired concentration and, after drying, populated with larvae of the mustard beetle (Phaedon cochleariae).

Data set [6] relates to Nephotettix cincticeps. Kind of data set: Example F: Nephotettix Test (7:1). The following applies: concentration of 1000 ppm. The format is in vivo. On the procedure:
(§2) To produce a suitable preparation of active compound, 1 part by weight of active compound is mixed with the stated amounts of solvent and emulsifier, and the concentrate is diluted with emulsifier-containing water to the desired concentration.
Rice seedlings (Oryza sativa) are treated by being dipped into the preparation of active compound of the desired concentration and are populated with the green rice leaf hopper (Nephotettix cincticeps) while the leaves are still moist.
After the desired period of time, the kill in % is determined. 100% means that all leaf hoppers have been killed; 0% means that none of the leaf hoppers have been killed.

Data set [7] deals with Plutella xylostella. As to the kind of experiment: Example D: Plutella Test (7:1). Format: in vivo. Conditions: concentration of 1000 ppm. On the procedure: as §2
Cabbage leaves (Brassica oleracea) are treated by being dipped into the preparation of active compound of the desired concentration and are populated with caterpillars of the diamond back moth (Plutella xylostella) while the leaves are still moist.
After the desired period of time, the kill in % is determined. 100% means that all caterpillars have been killed; 0% means that none of the caterpillars have been killed.

Data set [8] relates to Test plants. As to the kind of experiment: Example U: Pre-emergence Test. Format: in vivo. Conditions: greenhouse, 250 g of a.i./ha, after three weeks. On the procedure: To produce a suitable preparation of active compound, 1 part by weight of active compound is mixed with the stated amount of solvent, the stated amount of emulsifier is added and the concentrate is diluted with water to the desired concentration.
Seeds of the test plants are sown in normal soil. After about 24 hours, the soil is sprayed with the preparation of active compound such that the particular amounts of active compound desired are applied per unit area. The concentration of the spray liquor is chosen such that the particular amounts of active compound desired are applied in 1000 l of water/ha.
After three weeks, the degree of damage to the plants is rated in % damage in comparison to the development of the untreated control.
The figures denote: • 0%=no effect (like untreated control) • 100%=total destruction

The subject of data set [9] is Meloidogyne incognita. Kind of data set: Example H: Meloidogyne Test (7:1). Format: in vivo. Conditions: concentration of 20 ppm. On the procedure: (§3) To produce a suitable preparation of active compound, 1 part by weight of active compound is mixed with the stated amounts of solvent and emulsifier, and the concentrate is diluted with water to the desired concentration.
(§4) Vessels are filled with sand, solution of active compound, Meloidogyne incognita egg/larvae suspension and lettuce seeds. The lettuce seeds germinate and the plants develop. On the roots, galls are formed.
(§5) After the desired period of time, the nematicidal activity is determined in % by the formation of galls. 100% means that no galls have been found; 0% means that the number of galls on the treated plants corresponds to that of the untreated control.

Data set [10] has as its system Meloidogyne incognita. As to the kind of experiment: Example K: Meloidogyne Test. Format: in vivo. The following applies: concentration of 20 ppm. How it is done: as §3, §4, §5
The test system of data set [11] is Meloidogyne incognita. Kind of data set: Example P: Meloidogyne Test (spray treatment). The format is in vivo. Conditions: concentration of 20 ppm. On the procedure: To produce a suitable preparation of active compound, 1 part by weight of active compound is mixed with the stated amount of solvent, and the concentrate is diluted with water to the desired concentration.
as §4, §5

The subject of data set [12] is Phaedon cochleariae. Kind of data set: Example M: Phaedon cochleariae Larvae Test. The following applies: concentration of 100 ppm. The format is in vivo. How it is done:
[table] To produce a suitable preparation of active compound, 1 part by weight of active compound is mixed with the stated amounts of solvent and emulsifier, and the concentrate is diluted with emulsifier-containing water to the desired concentration. Cabbage leaves (Brassica oleracea) are treated by being dipped into the preparation of active compound of the desired concentration and are populated with larvae of the mustard beetle (Phaedon cochleariae) while the leaves are still moist.

Data set [13] deals with cereal crop plants. As to the kind of experiment: Profiling tests, herbicidal post-emergence action with safeners: container trials with cereal in a greenhouse, Mefenpyr 1 day prior to herbicide application. The following applies: in vivo. On the procedure: Test Description for Profiling Tests
2. Herbicidal Post-Emergence Action
Seeds of monocotyledonous and dicotyledonous weed and crop plants are placed into sandy loam in wood fibre pots or in plastic pots, covered with soil and cultivated in a greenhouse, during the vegetation period also outdoors outside of the greenhouse, under good growth conditions. 2-3 weeks after sowing, the test plants are treated at the one- to three-leaf stage. The test compounds, formulated as wettable powders (WP) or emulsifiable concentrates (EC) are, in various dosages with a water application rate of 300 l/ha (converted), with wetting agent (0.2 to 0.3%) added, sprayed onto the plants and the surface of the soil. […] after the treatment of the test plants, the effect of the preparations is rated visually in comparison to untreated controls (herbicidal effect in percent (%): 100% effect=the plants have died, 0% effect=like control plants). […]

`Cc1cc(C)c(C2=C(O)C3(CCC4(CC3)OC(C)C(C)O4)NC2=O)c(C)c1` (mixture of isomers) [Ex. I-1-a-7]: the “herbicidal effect, Sinapis” value in [1] amounted to 60%. Besides, in [2], the “herbicidal effect, Lolium” value was 80%. Also, the “herbicidal effect, Echinochloa” value in data set [3] turned out to be 60%. Moreover, in [4], the “herbicidal effect, Setaria” value turned out to be 80%. The compound further came in with an activity in % in data set [5] of 100%.

For `Cc1cc(C)c(C2=C(O)C3(CCC4(CC3)OC(C)CC(C)O4)NC2=O)c(C)c1` (mixture of isomers) [Ex. I-1-a-21], the “herbicidal effect, Sinapis” value in data set [1] amounted to 70%. In addition, in data set [2], the “herbicidal effect, Lolium” value was 80%. For the same compound, the “herbicidal effect, Echinochloa” value in data set [3] stood at 80%. For the same compound, the “herbicidal effect, Setaria” value in [4] amounted to 90%.

Turning to `CCOC(=O)OC1=C(c2c(C)cc(C)cc2C)C(=O)NC12CCC1(CC2)OCC(C)O1` (mixture of isomers) [Ex. I-1-c-6], in [1], the “herbicidal effect, Sinapis” value is reported as 60%. For the same compound, the “herbicidal effect, Lolium” value in [2] was 90%. Besides, the “herbicidal effect, Echinochloa” value in data set [3] came out at 80%. The “herbicidal effect, Setaria” value in [4] stood at 90%. In addition, the activity in % in [5] was found to be 100%.

Consider `Cc1cc(C)c(C2=C(O)C3(CCC4(CC3)OCCO4)NC2=O)c(C)c1` [Ex. I-1-a-2], for which the “activity (kill in %)” value in [6] and in data set [7] was 100% throughout. For the same compound, in data set [1], the “herbicidal effect, Sinapis” value turned out to be 60%. Further, the “herbicidal effect, Lolium” value in data set [2] came out at 70%. The “herbicidal effect, Echinochloa” value in data set [3] was determined as 80%. For the same compound, the “herbicidal effect, Setaria” value in data set [4] was determined as 90%.

Turning to `Cc1cc(Cl)cc(C)c1C1=C(O)C2(CCC3(CC2)OCCO3)NC1=O` [Ex. I-1-a-4], in data set [8] (sub-table 1), the “damage, Amaranthus” value amounted to 95%; the “damage, Echinochloa” value is given as 100%; the “damage, Galium” value came out at 70%; the “damage, Setaria” value is 100%. Moreover, the “damage, Sinapis” value in data set [8] (sub-table 1) came to 70%. In addition, the “nematicidal activity in % (formation of galls)” value (from here on “nematicidal activity in %”) in [9] stood at 95%.

`Cc1ccc(C)c(C2=C(O)C3(CCC4(CC3)OCCCO4)NC2=O)c1` [Ex. I-1-a-12]: in data set [10], the “nematicidal activity in %” value is on record as 80%.

On to `O=C1NC2(CCC3(CC2)OCCCO3)C(O)=C1c1cc(-c2ccc(Cl)cc2)ccc1Cl` [Ex. I-1-a-15], for which the “damage, Sugar beet” value in [8] (crop plant, sub-table 3) turned out to be 0%. For the same compound, in [8] (sub-table 3), the “damage, Alopecurus” value is reported as 95%; the “damage, Avena fatua” value came to 80%; the “damage, Echinochloa” value was 99%; the “damage, Setaria” value is on record as 70%. The “nematicidal activity in %” value in data set [11] was found to be 100%.

In the case of `Cc1cc(C)c(C2=C(O)C3(CCC4(CC3)OCCCO4)NC2=O)c(C)c1` [Ex. I-1-a-18], in data set [2], the “herbicidal effect, Lolium” value is recorded as 80%. In data set [3], the “herbicidal effect, Echinochloa” value is recorded as 90%. Further, the “herbicidal effect, Setaria” value in data set [4] amounted to 100%. The compound further showed an activity in % in [5] of 100%.

Turning to `Cc1cc(Br)cc(C)c1C1=C(O)C2(CCC3(CC2)OCCCO3)NC1=O` [Ex. I-1-a-19], the “herbicidal effect, Sinapis” value in data set [1] is reported as 70%. In addition, in [2], the “herbicidal effect, Lolium” value was 90%. The “herbicidal effect, Echinochloa” value in data set [3] turned out to be 90%. Besides, the “herbicidal effect, Setaria” value in data set [4] was found to be 90%.

`Cc1cc(C)c(C2=C(O)C3(CCC4(CC3)OCC(C)(C)CO4)NC2=O)c(C)c1` [Ex. I-1-a-23]: in data set [12], the “activity (kill in %)” value came out at 100%.

In the case of `CCOC(=O)OC1=C(c2c(CC)cc(Cl)cc2OC)C(=O)NC12CCC1(CC2)OCCO1` [Ex. I-1-c-25], in data set [13], the “Summer barley observed (%)” value is reported as 50%.

Take `Cc1cc(C)c(C2=C(O)C3(CCC4(CC3)OCCO4)OC2=O)c(C)c1` [Ex. I-2-a-2]: the “activity (kill in %)” value in [6] and in data set [7] was 100% in each case. For the same compound, the “herbicidal effect, Amaranthus” value in [1] was 60%. The “herbicidal effect, Sinapis” value in data set [1] was 70%. Also, in [2], the “herbicidal effect, Lolium” value is 90%. Besides, in data set [3], the “herbicidal effect, Echinochloa” value amounted to 80%. The “herbicidal effect, Setaria” value in [4] came out at 100%.

Turning to `Cc1cc(Br)cc(C)c1C1=C(O)C2(CCC3(CC2)OCCO3)OC1=O` [Ex. I-2-a-5], in [1], the “herbicidal effect, Amaranthus” value worked out at 70% and the “herbicidal effect, Stellaria” value stood at 60%. In data set [2], the “herbicidal effect, Lolium” value was found to be 100%. For the same compound, in data set [4], the “herbicidal effect, Setaria” value was found to be 70%.

Regarding `Cc1cc(Cl)cc(C)c1C1=C(O)C2(CCC3(CC2)OCCCO3)OC1=O` [Ex. I-2-a-6], the “herbicidal effect, Sinapis” value in data set [1] turned out to be 60%. The “herbicidal effect, Lolium” value in data set [2] is listed as 80%. The “herbicidal effect, Echinochloa” value in [3] amounted to 60%. Also, in data set [4], the “herbicidal effect, Setaria” value is reported as 80%.

On to `Cc1cc(C)c(C2=C(OC(=O)C(C)(C)C)C3(CCC4(CC3)OCCO4)OC2=O)c(C)c1` [Ex. I-2-b-2], for which the “activity (kill in %)” value in data set [6] and in [7] was 100% throughout.

In the case of `Cc1cc(Cl)cc(C)c1C1=C(OC(=O)C(C)C)C2(CCC3(CC2)OCC(CCl)O3)OC1=O` (stereo not drawn) [Ex. I-2-b-3], the “herbicidal effect, Lolium” value in [2] is 100%. The “herbicidal effect, Echinochloa” value in data set [3] came to 80%. In addition, the “herbicidal effect, Setaria” value in data set [4] turned out to be 90%.

(Values after patent US7897543B2, “Spiroketal-substituted cyclic ketoenols” (Bayer CropScience AG, priority 2005, dated 2011).)
